Consider one molecule from PMC3418602 (2009).

SMILES strings stand for the structures.

Holding throughout (test): TR-FRET peptide phosphorylation kinase assay
Holding throughout (assay type): biochemical
Background: Time-resolved FRET reads energy transfer from a long-lived donor to a nearby acceptor.

Experiment [1] deals with JAK2 (Homo sapiens, UniProt O60674).
Experiment [2] has as its target JAK3 (Homo sapiens, UniProt P52333).
The target of experiment [3] is JAK1 (Homo sapiens, UniProt P23458).
JAK1, sequence (P23458 850-1154 limits assumed): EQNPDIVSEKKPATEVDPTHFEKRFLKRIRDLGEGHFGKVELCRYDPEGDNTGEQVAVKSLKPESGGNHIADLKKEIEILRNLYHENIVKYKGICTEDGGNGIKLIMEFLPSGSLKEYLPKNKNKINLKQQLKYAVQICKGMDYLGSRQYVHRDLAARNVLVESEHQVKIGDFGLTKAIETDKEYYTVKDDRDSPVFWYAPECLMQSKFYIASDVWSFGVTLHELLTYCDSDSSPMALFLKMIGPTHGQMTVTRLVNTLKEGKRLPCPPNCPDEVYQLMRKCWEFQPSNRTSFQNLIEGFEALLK

JAK2, sequence (O60674 840-1132 limits assumed): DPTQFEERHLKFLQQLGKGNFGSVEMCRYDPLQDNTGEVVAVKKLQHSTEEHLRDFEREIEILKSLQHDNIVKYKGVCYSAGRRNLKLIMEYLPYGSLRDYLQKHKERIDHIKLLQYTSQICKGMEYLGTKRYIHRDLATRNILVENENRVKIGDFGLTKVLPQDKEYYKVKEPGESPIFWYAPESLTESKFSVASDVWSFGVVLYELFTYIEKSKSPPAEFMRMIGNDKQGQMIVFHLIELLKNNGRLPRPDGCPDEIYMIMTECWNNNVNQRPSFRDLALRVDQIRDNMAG
JAK3, sequence (P52333 781-1124 limits assumed): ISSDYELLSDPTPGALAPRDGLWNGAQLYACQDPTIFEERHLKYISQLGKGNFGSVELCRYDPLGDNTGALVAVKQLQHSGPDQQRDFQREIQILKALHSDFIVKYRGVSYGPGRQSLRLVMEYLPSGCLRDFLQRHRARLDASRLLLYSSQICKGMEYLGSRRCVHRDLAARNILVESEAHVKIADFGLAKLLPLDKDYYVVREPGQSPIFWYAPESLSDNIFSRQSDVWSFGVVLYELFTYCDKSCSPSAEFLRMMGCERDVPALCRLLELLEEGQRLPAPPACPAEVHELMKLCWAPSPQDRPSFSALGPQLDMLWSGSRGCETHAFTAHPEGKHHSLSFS

Take `N#C/C(=C\c1ccc(O)c(O)c1)C(=O)NCc1ccccc1` [AG490]: the IC50 in experiment [1] was found to be 11.2 µM; in experiment [2], 15.4 µM; in experiment [3] it was 10.2 µM.

The term IC50 denotes the concentration that gives 50% inhibition. A higher IC50 goes with weaker potency in that assay.
